Test results reported in patent US8034904B2, “Anti-IGF-I receptor antibody” (Immunogen Inc., priority 2002, dated 2011).
Where a chain is given by its changes, count along the chain named.

Columns and labels:
[1] = Bhuyan et al., 1982; cited from earlier work
[2] = system: Human non-small cell lung cancer Calu-6 xenografts; format: in vivo; conditions: established 100 mm^3 Calu-6 xenografts; EM164 0.8 mg/mouse i.v. x6; taxol 15 mg/kg i.p. x5
Excerpt: Human non-small cell lung cancer Calu-6 xenografts were established in immunodeficient mice by subcutaneous injections of 1×10^7 Calu-6 cells.

multiple myeloma = conditions: previously untreated stages I or II myeloma; cited from earlier work
Colo 205 (colon) cells = assay: Growth and survival of Colo 205 cells (MTT assay); format: cell-based, human; conditions: 10 ng/mL IGF-I, 3- to 4-day
Protocol: (§1) Several human tumor cell lines were tested in serum-free conditions for their growth and survival response to IGF-I. These cell lines were treated with EM164 antibody in the presence of IGF-I, IGF-II, or serum, and their growth and survival responses were measured using an MTT assay after 2-4 days. Approximately 1500 cells were plated in a 96-well plate in regular medium with serum, which was replaced with serum-free medium the following day (either serum-free RPMI medium supplemented with transferrin and BSA, or phenol-red free medium as specified by Dufourny, B. et al., 1997, J. Biol. Chem., 272, 31163-31171). After one day of growth in serum-free medium, the cells were incubated with about 75 μL of 10 μg/mL antibody for 30 min.-3 h, followed by the addition of 25 μL of IGF-I (or IGF-II or serum) solution to obtain a final concentration of 10 ng/mL IGF-I, or 20 ng/mL IGF-II, or 0.04-10% serum. In some experiments, the cells were stimulated first with IGF-I for 15 min before the addition of EM164 antibody, or both IGF-I and EM164 antibody were added together. The cells were then allowed to grow for another 2-3 days. A solution of MTT (3-(4,5)-dimethylthiazol-2-yl)-2,5-diphenyltetrazolium bromide; 25 μL of a 5 mg/mL solution in PBS) was then added and the cells were returned to the incubator for 2-3 h. The medium was then removed and replaced by 100 μL DMSO, mixed, and the absorbance of the plate was measured at 545 nm.

SK-Mel-37 cells = assay: Growth and survival of SK-Mel-37 cells (MTT assay); format: cell-based, human; conditions: 10 ng/mL IGF-I, 3- to 4-day
Protocol: as §1, with “A solution of MTT (3-(4,5)-dimethylthiazol-2-yl)-2,5-diphenyltetrazolium bromide; 25 μL of a 5 mg/mL solution in PBS) was then added and the cells were returned to the incubator for 2-3 h.” left out

HT-3 (cervical) cells = assay: Growth and survival of HT-3 cells (MTT assay); format: cell-based, human; conditions: 10 ng/mL IGF-I, 3- to 4-day
Protocol: as §1, with “A solution of MTT (3-(4,5)-dimethylthiazol-2-yl)-2,5-diphenyltetrazolium bromide; 25 μL of a 5 mg/mL solution in PBS) was then added and the cells were returned to the incubator for 2-3 h.” left out

[3] = system: SaOS-2 (osteosarcoma) cells; assay: Growth and survival of SaOS-2 cells (MTT assay); format: cell-based, human; conditions: 10 ng/mL IGF-I, 3- to 4-day
Protocol: as §1

[4] = system: RD (rhabdomyocarcoma) cells; assay: Growth and survival of RD cells (MTT assay); format: cell-based, human; conditions: 10 ng/mL IGF-I, 3- to 4-day
Protocol: as §1

[5] = system: Calu-6 non-small cell lung cancer cells; assay: Growth and survival of Calu-6 cells (MTT assay); format: cell-based, human; conditions: 10 ng/mL IGF-I, 3- to 4-day
Protocol: as §1

SK-LU-1 cells = assay: Growth and survival of SK-LU-1 cells (MTT assay); format: cell-based, human; conditions: 10 ng/mL IGF-I, 3- to 4-day
Protocol: as §1

NCI-H596 cells = assay: Growth and survival of NCI-H596 cells (MTT assay); format: cell-based, human; conditions: 10 ng/mL IGF-I, 3- to 4-day
Protocol: as §1

A 375 (melanoma) cells = assay: Growth and survival of A 375 cells (MTT assay); format: cell-based, human; conditions: 10 ng/mL IGF-I, 3- to 4-day
Protocol: as §1

MCF-7 cells = assay: Cell cycle analysis of MCF-7 cells (propidium iodide, flow cytometry); format: cell-based, human; conditions: IGF-I 20 ng/mL with or without EM164 20 μg/mL, 1 day
Protocol: The EM164 antibody caused growth arrest of cells in G0/G1 phase of cell cycle and abrogated the mitogenic effect of IGF-I. For cell cycle analysis, MCF-7 cells were treated with IGF-I (20 ng/mL) in the presence or absence of EM164 (20 μg/mL) for 1 day and then analyzed by propidium iodide staining and flow cytometry.

MCF-7 (breast) cells = assay: Growth and survival of MCF-7 cells (MTT assay); format: cell-based, human
Protocol: as §1

[6] = system: SK-N-SH (neuroblastoma) cells; assay: Growth and survival of SK-N-SH cells (MTT assay); format: cell-based, human; conditions: 10 ng/mL IGF-I, 3- to 4-day
Protocol: as §1

A 431 (epidermoid) cells = assay: Growth and survival of A 431 cells (MTT assay); format: cell-based, human; conditions: 10 ng/mL IGF-I, 3- to 4-day
Protocol: as §1

NCI-H838 (lung) cells = assay: Growth and survival of NCI-H838 cells (MTT assay); format: cell-based, human; conditions: NCI-H838 (lung); 10 ng/mL IGF-I, 3- to 4-day
Protocol: as §1

A 549 cells = assay: Growth and survival of A 549 cells (MTT assay); format: cell-based, human; conditions: 10 ng/mL IGF-I, 3- to 4-day
Protocol: as §1, with “A solution of MTT (3-(4,5)-dimethylthiazol-2-yl)-2,5-diphenyltetrazolium bromide; 25 μL of a 5 mg/mL solution in PBS) was then added and the cells were returned to the incubator for 2-3 h.” left out

HT-29 colon cancer cells = assay: Growth and survival of HT-29 cells (MTT assay, colony formation); format: cell-based, human; conditions: HT-29; 10 ng/mL IGF-I, 3- to 4-day
Protocol: as §1

[7] = system: biotinylated full-length human IGF-I receptor; assay: ELISA binding competition of humanized/chimeric versus murine EM164
Sequence of biotinylated full-length human IGF-I receptor (P08069 31-498 limits assumed): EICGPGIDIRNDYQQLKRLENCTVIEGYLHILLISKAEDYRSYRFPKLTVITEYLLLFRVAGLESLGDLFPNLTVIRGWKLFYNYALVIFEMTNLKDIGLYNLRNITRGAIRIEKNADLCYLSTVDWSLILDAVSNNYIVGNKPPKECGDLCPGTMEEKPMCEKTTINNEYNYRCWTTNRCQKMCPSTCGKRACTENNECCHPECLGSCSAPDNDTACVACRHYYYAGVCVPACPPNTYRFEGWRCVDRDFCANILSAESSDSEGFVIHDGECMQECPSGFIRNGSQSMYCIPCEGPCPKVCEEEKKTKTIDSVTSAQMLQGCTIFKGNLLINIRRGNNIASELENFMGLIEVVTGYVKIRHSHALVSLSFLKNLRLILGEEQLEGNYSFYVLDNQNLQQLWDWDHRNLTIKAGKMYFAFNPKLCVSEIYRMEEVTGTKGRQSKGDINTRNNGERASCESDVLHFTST
Protocol: The affinities of the humanized EM164 antibody versions 1.0-1.3 were compared to those of murine EM164 antibody through binding competition assays using biotinylated full-length human IGF-I receptor or myc-epitope tagged truncated IGF-I receptor alpha chain, as described above. Humanized EM164 antibody samples were obtained by transient transfection of the appropriate expression vectors in human embryonic kidney 293T cells, and antibody concentrations were determined by ELISA using purified humanized antibody standards. For ELISA binding competition measurements, mixtures of humanized antibody samples and various concentrations of murine EM164 antibody were incubated with indirectly captured biotinylated full-length IGF-I receptor or myc-epitope tagged truncated IGF-I receptor alpha chain. After equilibration, the bound humanized antibody was detected using a goat-anti-human-Fab′2-antibody-horseradish peroxidase conjugate. Plots of ([bound murine Ab]/[bound humanized Ab]) vs ([murine Ab]/[humanized Ab]), which theoretically yield a straight line with slope=(Kd humanized Ab/Kd murine Ab), were used to determine the relative affinities of the humanized and murine antibodies.
An Immulon-2HB ELISA plate was coated with 100 μL of 5 μg/mL streptavidin per well in carbonate buffer at ambient temperature for 7 h. […] The wells were then washed with TBS-T buffer and incubated with goat-anti-human-Fab′2-antibody-horseradish peroxidase conjugate for 1 h (100 μL; 1 μg/mL in blocking buffer), followed by washes and detection using ABTS/H2O2 substrate at 405 nm.

[8] = molecular target: biotinylated human IGF-I receptor; assay: ELISA binding titration (Kd) with biotinylated IGF-I receptor; conditions: ELISA titration, non-linear regression for one-site binding; read-out: dissociation constant (Kd)
Sequence of biotinylated human IGF-I receptor (P08069 31-736 limits assumed): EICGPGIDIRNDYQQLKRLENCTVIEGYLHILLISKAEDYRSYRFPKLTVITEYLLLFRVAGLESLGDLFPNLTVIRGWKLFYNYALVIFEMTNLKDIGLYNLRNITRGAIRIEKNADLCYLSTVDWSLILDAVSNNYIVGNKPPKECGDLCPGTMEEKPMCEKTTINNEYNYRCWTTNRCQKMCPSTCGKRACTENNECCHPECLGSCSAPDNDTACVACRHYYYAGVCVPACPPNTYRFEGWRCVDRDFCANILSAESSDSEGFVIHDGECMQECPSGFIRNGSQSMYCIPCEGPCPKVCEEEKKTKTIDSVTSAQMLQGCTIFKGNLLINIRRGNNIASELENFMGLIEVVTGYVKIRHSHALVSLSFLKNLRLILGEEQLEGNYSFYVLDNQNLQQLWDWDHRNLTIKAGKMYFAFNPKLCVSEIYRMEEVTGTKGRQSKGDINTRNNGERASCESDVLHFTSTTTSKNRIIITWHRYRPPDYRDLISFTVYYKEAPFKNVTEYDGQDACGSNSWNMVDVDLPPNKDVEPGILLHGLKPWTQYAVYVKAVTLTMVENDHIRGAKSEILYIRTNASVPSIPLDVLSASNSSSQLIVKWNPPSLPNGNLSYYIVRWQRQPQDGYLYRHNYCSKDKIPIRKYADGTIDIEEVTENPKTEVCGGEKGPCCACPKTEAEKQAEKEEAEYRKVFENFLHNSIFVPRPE
Sequence of biotinylated human IGF-I receptor (P08069 741-935 limits assumed): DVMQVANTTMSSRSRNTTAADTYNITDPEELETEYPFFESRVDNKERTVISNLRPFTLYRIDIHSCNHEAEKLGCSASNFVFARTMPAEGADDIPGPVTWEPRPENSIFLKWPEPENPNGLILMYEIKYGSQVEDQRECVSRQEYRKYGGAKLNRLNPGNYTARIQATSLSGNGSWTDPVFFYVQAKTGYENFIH
Protocol: The wells were next washed with TBS-T buffer and incubated with goat-anti-mouse-IgGH+L-antibody-horseradish peroxidase conjugate (100 μL; 0.5 μg/mL in blocking buffer), followed by washes and detection using ABTS/H2O2 substrate at 405 nm. The value of Kd was estimated by non-linear regression for one-site binding.
A similar binding titration was carried out using the Fab fragment of EM164 antibody, prepared by papain digestion of the antibody as described by E. Harlow and D. Lane (“Using Antibodies: A Laboratory Manual”; 1999, Cold Spring Harbor Laboratory Press, New York).

Molecule: COc1c(O)c2c(c3cc(C(=O)N4CCc5c4c(O)c(OC)c4[nH]c(C(=O)N6CC7CC78C6=CC(=O)c6[nH]cc(C)c68)cc54)[nH]c13)CCN2C(N)=O (stereo not shown) [CC-1065]
- potency in vitro relative to doxorubicin, methotrexate and vincristine [1]: about 1000 fold

Molecule: CC(=O)O[C@H]1C(=O)[C@@]2(C)[C@H]([C@H](OC(=O)c3ccccc3)[C@]3(O)C[C@H](OC(=O)[C@H](O)[C@@H](NC(=O)c4ccccc4)c4ccccc4)C(C)=C1C3(C)C)[C@]1(OC(C)=O)CO[C@@H]1C[C@@H]2O [taxol, reference compound]
- growth of tumors [2]: effective until day 14

Molecule: IFN-α
- patients who responded to treatment (multiple myeloma): 7 of 14

Molecule: IGF-I: insulin-like growth factor-I, ligand of the IGF-I receptor used as growth stimulant [reference compound]
- Fold growth response to IGF-I (MTT assay: ratio for IGF-I treated vs untreated cells in serum-free medium) (Colo 205 (colon) cells): 2.3
- Fold growth response to IGF-I (MTT assay: ratio for IGF-I treated vs untreated cells in serum-free medium) (SK-Mel-37 cells): 1.4
- Fold growth response to IGF-I (MTT assay: ratio for IGF-I treated vs untreated cells in serum-free medium) (HT-3 (cervical) cells): 2
- Fold growth response to IGF-I (MTT assay: ratio for IGF-I treated vs untreated cells in serum-free medium) [3]: 2.5
- Fold growth response to IGF-I (MTT assay: ratio for IGF-I treated vs untreated cells in serum-free medium) [4]: 1.7
- Fold growth response to IGF-I (MTT assay: ratio for IGF-I treated vs untreated cells in serum-free medium) [5]: 1.6-1.8
- Fold growth response to IGF-I (MTT assay: ratio for IGF-I treated vs untreated cells in serum-free medium) (SK-LU-1 cells): 1.4
- Fold growth response to IGF-I (MTT assay: ratio for IGF-I treated vs untreated cells in serum-free medium) (NCI-H596 cells): 1.4
- Fold growth response to IGF-I (MTT assay: ratio for IGF-I treated vs untreated cells in serum-free medium) (A 375 (melanoma) cells): 1.6
- cells in the G0/G1 phase (MCF-7 cells): 50%
- cells in the S phase (MCF-7 cells): 41%
- Fold growth response to IGF-I (MTT assay: ratio for IGF-I treated vs untreated cells in serum-free medium) (MCF-7 (breast) cells; MCF-7 (breast), 10 ng/mL IGF-I, 3- to 4-day): 1.7-2.8
- Fold growth response to IGF-I (MTT assay: ratio for IGF-I treated vs untreated cells in serum-free medium) [6]: 2
- Fold growth response to IGF-I (MTT assay: ratio for IGF-I treated vs untreated cells in serum-free medium) (A 431 (epidermoid) cells): 2.2
- Fold growth response to IGF-I (MTT assay: ratio for IGF-I treated vs untreated cells in serum-free medium) (NCI-H838 (lung) cells): 3
- Fold growth response to IGF-I (MTT assay: ratio for IGF-I treated vs untreated cells in serum-free medium) (A 549 cells): 1.2
- Fold growth response to IGF-I (MTT assay: ratio for IGF-I treated vs untreated cells in serum-free medium) (HT-29 colon cancer cells): 1.5

B1: chimeric version of EM164 antibody with 92F→C mutation: chimeric version of EM164 antibody with 92F→C mutation in heavy chain (antibody, V domains shown)
VH: QVQLQQSGAELVKPGASVKLSCKASGYTFTSYWMHWVKQRPGQGLEWIGEINPSNGRTNYNEKFKRKATLTVDKSSSTAYMQLSSLTSEDSAVYYCARGRPDYYGSSKWYFDVWGAGTTVTVSS
VL: DVLMTQTPLSLPVSLGDQASISCRSSQSIVHSNVNTYLEWYLQKPGQSPKLLIYKVSNRFSGVPDRFSGSGSGTDFTLRISRVEAEDLGIYYCFQGSHVPPTFGGGTKLEIK
- lower affinity than murine EM164 antibody for binding to IGF-I receptor [7]: 3 fold
- slope in binding competition with murine EM164 antibody ([7]; similar binding competition): about 3

B2: Fab fragment of EM164 antibody: Fab fragment of EM164 antibody, prepared by papain digestion (antibody, V domains shown)
VH: QVQLQQSGAELVKPGASVKLSCKASGYTFTSYWMHWVKQRPGQGLEWIGEINPSNGRTNYNEKFKRKATLTVDKSSSTAYMQLSSLTSEDSAVYYFARGRPDYYGSSKWYFDVWGAGTTVTVS
VL: DVLMTQTPLSLPVSLGDQASISCRSSQSIVHSNVNTYLEWYLQKPGQSPKLLIYKVSNRFSGVPDRFSGSGSGTDFTLRISRVEAEDLGIYYCFQGSHVPPTFGGGTKLEIKR
- Kd [8]: 300 pM

B3: humanized EM164 v1.0: resurfaced EM164 with all 10 human surface residues (light chain aa3 V, aa45 R) (antibody, V domains shown)
VH: B2 VH with Q5V, L11V, E62Q, K65Q, R66G, A116Q
VL: B2 VL with L3V, Q18P, K50R, S72A
- slope (=Kd humanized Ab / Kd murine Ab) ([7]; biotinylated IGF-I receptor, FIG. 11, r^2=0.996): 0.52
- inhibition of serum-stimulated growth and survival of MCF-7 cells, compared with murine EM164 (MCF-7 (breast) cells): similar
